Reference: article PMC7927096, “Dipeptides of S-Substituted Dehydrocysteine as Artzyme Building Blocks: Synthesis, Complexing Abilities and Antiproliferative Properties” (International Journal of Molecular Sciences, 2021)
Structures can show the parent of a compound that is named as a salt. Where two headings read alike, the source gives them in different places.

Columns and labels:
[1] = test system: Balb/3T3 (non-tumorigenic murine fibroblasts); assay: Antiproliferative activity, sulforhodamine B assay; assay type: cell-based; details: SRB, 72 h incubation, non-tumorigenic line, read-out: IC50 ± SD, Balb/3T3
Text: (§1) Ten different human cancer cell lines (including drug-resistant sublines) and one non-tumorigenic murine fibroblasts cell line were used to determine antiproliferative activity of the tested compounds. The MDA-MB-231 (breast adenocarcinoma), UM-UC-3 (urinary bladder transitional cell carcinoma), LoVo (colorectal adenocarcinoma), LoVo^Dx (colorectal adenocarcinoma, doxorubicin-resistant) and Balb/3T3 (non-tumorigenic murine fibroblasts) were purchased from the American Type Culture Collection (ATCC; Rockville, USA). The MCF-7 (breast adenocarcinoma) and A549 (lung carcinoma) were purchased from European Collection of Authenticated Cell Cultures (ECACC; Porton Down, UK). The UM-UC-3^CDDP, UM-UC-3^GEM, UM-UC-3^VBL, and UM-UC-3^CDDP/GEM cell lines were established at Hirszfeld Institute of Immunology and Experimental Therapy of the Polish Academy of Sciences (HIIET, PAS, Wroclaw, Poland) by the continuous exposure to the increasing concentrations of corresponding cytostatics.
(§2) The Balb/3T3 and UM-UC-3 were cultured in Dulbecco’s Modified Eagle Medium (DMEM; Life Technologies, UK) supplemented with 10% (v/v) fetal bovine serum (FBS; GE Healthcare HyClone, Logan, USA) and 2 mM L-glutamine (Sigma-Aldrich, Poznań, Poland). The UM-UC-3^CDDP, UM-UC-3^GEM, UM-UC-^3VBL, and UM-UC-3^CDDP/GEM culture media were additionally supplemented with appropriate cytostatics: 2.5 µg/mL cisplatin (Accord, Warsaw, Poland) for UM-UC-3^CDDP, 500 nM gemcitabine (Sigma-Aldrich, Poznań, Poland) for UM-UC-3^GEM, 5 nM vinblastine (Sigma-Aldrich, Poznań, Poland) for UM-UC-3VBL, 2.5 µg/mL cisplatin and 500 nM gemcitabine for UM-UC-3^CDDP/GEM. The LoVo cell line was cultured in F-12K Nutrient Mixture (F-12K; Corning, Corning, USA), supplemented with 10% (v/v) FBS. LoVo^Dx culture medium was additionally supplemented with doxorubicin 100 ng/mL (Accord, Warsaw, Poland). The MCF-7 cell line was cultured in Eagle’s medium (HIIET, PAS, Wroclaw, Poland), supplemented with 10% (v/v) FBS (Sigma-Aldrich, Poznań, Poland), 2 mM L-glutamine, MEM non-essential amino acid solution 1% (v/v) (Sigma-Aldrich, Poznań, Poland), insulin 8 µg/mL (Sigma-Aldrich, Poznań, Poland). The MDA-MB-231 cell line was cultured in RPMI 1640 (HIIET, PAS, Wroclaw, Poland), supplemented with 10% (v/v) FBS (Sigma-Aldrich, Poznań, Poland) and 2 mM L-glutamine. The A 549 cell line was cultured in OptiMEM (HIIET, PAS, Wroclaw, Poland), supplemented with 5% (v/v) FBS (GE Healthcare HyClone, Logan, USA) and 2 mM L-glutamine. All culture media were supplemented with antibiotics—100 μg/mL streptomycin (Polfa Tarchomin, Warsaw, Poland) and 100 U/mL penicillin (Sigma-Aldrich, Poznań, Poland).
(§3) All cell lines were cultured in a humidified atmosphere at 37 °C with 5% (v/v) CO2 and passaged twice a week using EDTA-Trypsin solution (pH 8; HIIET, Wroclaw, Poland) as a detachment agent.
(§4) All compounds, for antiproliferative activity assessment, were stored at […] as 50 mM solutions in dimethyl sulfoxide (DMSO; Avantor Performance Materials, Gliwice, Poland).
(§5) The cells were seeded on 384-well plates (Greiner Bio One, Kremsmünster, Austria) at 1 × 10^3 cells/well density for A 549, UM-UC-3, UM-UC-3^CDDP, UM-UC-3^GEM, UM-UC-3^CVBL and UM-UC-3^CDDP/GEM cell lines. Other cell lines were seeded at 2 × 10^3 cells/well. After overnight incubation, compounds were applied at eight concentrations (ranging from 100 µM to 0.03 µM). After 72 h incubation, the sulforhodamine B (SRB) assay based on Skehan et al. was carried out with slight modifications. In brief, 50 µL of the medium was replaced with 30 µL/well of 25% (w/v) trichloroacetic acid (Avantor Performance Materials, Gliwice, Poland). After 1 h incubation at room temperature, plates were washed three times with tap water, and 20 µL of 0.1% (w/v) solution of sulforhodamine B (Sigma-Aldrich, Poznan, Poland) in 1% (v/v) acetic acid (Avantor Performance Materials, Gliwice, Poland) was added to each well. […]

A549 (lung carcinoma) = assay: Antiproliferative activity, sulforhodamine B assay; assay type: cell-based, human; details: SRB, 72 h incubation, read-out: IC50 ± SD, A-549
Text: as §1, §2, §3, §4, §5

[2] = test system: MCF-7 (breast adenocarcinoma); assay: Antiproliferative activity, sulforhodamine B assay; assay type: cell-based, human; details: SRB, 72 h incubation, read-out: IC50 ± SD, MCF-7
Text: as §1, §2, §3, §4, §5

[3] = test system: LoVo^DX (colorectal adenocarcinoma, doxorubicin-resistant); assay: Antiproliferative activity, sulforhodamine B assay; assay type: cell-based, human; details: SRB, 72 h incubation, read-out: IC50 ± SD, LoVo^DX
Text: as §1, §2, §3, §4, §5

[4] = test system: UM-UC-3^GEM (gemcitabine-resistant); assay: Antiproliferative activity, sulforhodamine B assay; assay type: cell-based, human; details: SRB, 72 h incubation, read-out: IC50 ± SD, UM-UC-3^GEM
Text: as §1, §2, §3, §4, §5

[5] = test system: UM-UC-3^CDDP/GEM (resistant to cisplatin and gemcitabine); assay: Antiproliferative activity, sulforhodamine B assay; assay type: cell-based, human; details: SRB, 72 h incubation, read-out: IC50 ± SD, UM-UC-3^CDDP/GEM
Text: as §1, §2, §3, §4, §5

[6] = test system: UM-UC-3 (urinary bladder transitional cell carcinoma); assay: Antiproliferative activity, sulforhodamine B assay; assay type: cell-based, human; details: SRB, 72 h incubation, read-out: IC50 ± SD, UM-UC-3
Text: as §1, §2, §3, §4, §5

[7] = test system: UM-UC-3^CDDP (cisplatin-resistant); assay: Antiproliferative activity, sulforhodamine B assay; assay type: cell-based, human; details: SRB, 72 h incubation, read-out: IC50 ± SD, UM-UC-3^CDDP
Text: as §1, §2, §3, §4, §5

[8] = test system: LoVo (colorectal adenocarcinoma); assay: Antiproliferative activity, sulforhodamine B assay; assay type: cell-based, human; details: SRB, 72 h incubation, read-out: IC50 ± SD, LoVo
Text: as §1, §2, §3, §4, §5

[9] = test system: UM-UC-3^VBL (vinblastine-resistant); assay: Antiproliferative activity, sulforhodamine B assay; assay type: cell-based, human; details: SRB, 72 h incubation, read-out: IC50 ± SD, UM-UC-3^VBL
Text: as §1, §2, §3, §4, §5

[10] = test system: MDA-MB-231 (breast adenocarcinoma); assay: Antiproliferative activity, sulforhodamine B assay; assay type: cell-based, human; details: SRB, 72 h incubation, read-out: IC50 ± SD, MDA-MB-231
Text: as §1, §2, §3, §4, §5

[11] = test system: ten diverse human cancer cells lines and murine non-tumorigenic cell line (Balb/3T3); assay: Antiproliferative screen, whole cell line panel (statements in words); assay type: cell-based; details: SRB; for antiproliferative activity (in words): across cell lines; for activity against resistant versus parent cell lines (in words): 10d: with exception of the line resistant to gemcitabine
Text: as §1, §2, §3, §4, §5

[12] = design: method as in PMID 12031802; details: Cu(II) complex; cited from earlier work

IC50 (A549 (lung carcinoma); Homo sapiens, A549)	IC50 ([2]; Homo sapiens, MCF7)	IC50 ([3]; Homo sapiens, LoVo/DX)	IC50 ([6]; Homo sapiens, UMUC3)	IC50 ([8]; Homo sapiens, LoVo)	IC50 ([10]; Homo sapiens, MDA-MB-231)	SMILES	IC50 ([1]; Mus musculus, BALB/3T3)	IC50 ([4]; Homo sapiens)	IC50 ([5]; Homo sapiens)	IC50 ([7]; Homo sapiens)	IC50 ([9]; Homo sapiens)	antiproliferative activity (in words) [11]	activity against resistant versus parent cell lines (in words) [11]	other results
						[NH2][Pt]([NH2])([Cl])[Cl] [CDDP, cisplatin, reference compound]								IC50 [1]: 10.2 ± 4.8 µM; IC50 (A549 (lung carcinoma)): 2.7 ± 1 µM; IC50 [2]: 6 ± 2.2 µM; IC50 [3]: 3.4 ± 0.2 µM; IC50 [4]: 2.6 ± 0.2 µM; IC50 [5]: 25.1 ± 1.9 µM; IC50 [6]: 2.4 ± 0.6 µM; IC50 [7]: 26.1 ± 1.8 µM; IC50 [8]: 4.4 ± 0.3 µM; IC50 [9]: 2.3 ± 0.3 µM; IC50 [10]: 24.4 ± 4.8 µM
27.2 ± 7.7 µM	31.8 ± 7.8 µM	> 100 µM	23.1 ± 2.6 µM	32.4 ± 2.6 µM	35 ± 10 µM	COC(=O)/C(=C/Sc1nc(-c2ccccc2)c[nH]1)NC(=O)CNC(=O)OC(C)(C)C [Compound 6b, Boc-Gly-ΔCys(S-4-phenylimidazole)-OMe]	38.4 ± 3.5 µM	35.1 ± 2.8 µM	32.5 ± 4 µM	34.6 ± 3.6 µM	33.8 ± 2.6 µM			
6.2 ± 1.4 µM	5.3 ± 0.9 µM	6.4 ± 0.4 µM	7.2 ± 0.6 µM	8.7 ± 1.1 µM	5 ± 0.8 µM	COC(=O)/C(=C/Sc1nc2cc(OC)ccc2o1)NC(=O)CNC(=O)OC(C)(C)C [Compound 6c, Boc-Gly-ΔCys(S-5-methoxybenzoxazole)-OMe]	5.3 ± 1.2 µM	5.2 ± 0.6 µM	8.6 ± 1.4 µM	7.8 ± 0.7 µM	6 ± 1.5 µM	most potent representatives	equipotential towards both resistant and parent cell lines	
5.6 ± 0.9 µM	4.5 ± 0.5 µM	6.2 ± 0.6 µM	4.6 ± 0.4 µM	6.7 ± 0.7 µM	6.1 ± 0.6 µM	COC(=O)/C(=C/Sc1nc2ccccc2s1)NC(=O)CNC(=O)OC(C)(C)C [Compound 6d, Boc-Gly-ΔCys(S-benzothiazole)-OMe]	5.8 ± 0.9 µM	4.6 ± 0.5 µM	6.2 ± 0.8 µM	6.4 ± 0.4 µM	4.9 ± 0.8 µM	most potent representatives	equipotential towards both resistant and parent cell lines	
60.7 ± 12.1 µM	74.5 ± 5.8 µM	> 100 µM	56 ± 5.7 µM	75.8 ± 6.5 µM	53.3 ± 5.5 µM	COC(=O)/C(=C/Sc1nc[nH]n1)NC(=O)[C@H](Cc1ccccc1)NC(=O)OC(C)(C)C [Compound 7a, Boc-Phe-ΔCys(S-triazole)-OMe]	19.7 ± 1.9 µM	65.2 ± 4.9 µM	62.2 ± 5.3 µM	67.7 ± 3.9 µM	54.9 ± 3.5 µM	markedly lower, if any, activity		
12 ± 4 µM	15.5 ± 2.5 µM	23 ± 2.2 µM	13.5 ± 4.5 µM	16.4 ± 1.7 µM	15.2 ± 4.4 µM	COC(=O)/C(=C/Sc1nc(-c2ccccc2)c[nH]1)NC(=O)[C@H](Cc1ccccc1)NC(=O)OC(C)(C)C [Compound 7b, Boc-Phe-ΔCys(S-4-phenylimidazole)-OMe]	7.6 ± 0.9 µM	19.9 ± 3.3 µM	17.2 ± 2.1 µM	19 ± 3.2 µM	17.3 ± 1.7 µM			
4 ± 1.1 µM	4.5 ± 0.4 µM	4.5 ± 0.4 µM	6.2 ± 0.8 µM	6.3 ± 0.5 µM	7.1 ± 0.8 µM	COC(=O)/C(=C/Sc1nc2cc(OC)ccc2o1)NC(=O)[C@H](Cc1ccccc1)NC(=O)OC(C)(C)C [Compound 7c, Boc-Phe-ΔCys(S-5-methoxybenzoxazole)-OMe]	5.3 ± 0.4 µM	7 ± 0.5 µM	5.9 ± 0.4 µM	6.8 ± 0.8 µM	5.8 ± 0.6 µM	most potent representatives	equipotential towards both resistant and parent cell lines	
6.6 ± 1.4 µM	6.8 ± 0.5 µM	8.6 ± 0.9 µM	6.7 ± 1.4 µM	9.6 ± 0.9 µM	10.8 ± 0.4 µM	COC(=O)/C(=C/Sc1nc2ccccc2s1)NC(=O)[C@H](Cc1ccccc1)NC(=O)OC(C)(C)C [Compound 7d, Boc-Phe-ΔCys(S-benzothiazole)-OMe]	3.1 ± 0.6 µM	8 ± 2.3 µM	9.1 ± 1.2 µM	11.2 ± 1.5 µM	6.3 ± 1 µM	most potent representatives	equipotential towards both resistant and parent cell lines	
14 ± 5.6 µM	22 ± 4.5 µM	33.1 ± 9 µM	30.5 ± 3.7 µM	70.3 ± 21.5 µM	24.4 ± 3 µM	COC(=O)/C(=C/Sc1nc2ccccc2s1)NC(=O)[C@@H](N)Cc1ccccc1 [Compound 10d, HCl Phe-ΔCys(S-benzothiazole)-OMe]	42.2 ± 9.3 µM	67.8 ± 9.6 µM	25.3 ± 8 µM	16.6 ± 2.5 µM	9.4 ± 2.2 µM		more effective against resistant cell lines	
						NCC(=O)N/C(=C\c1ccccc1)C(=O)O [Gly(Z)ΔPhe]								logβ of the analogous species with {N-NH2, Namide} binding mode [12]: 2.19
